# Experimental data as given in patent US11426397B2, “Piperidinyl- and piperazinyl-substituted heteroaromatic carboxamides as modulators of GPR6” (TAKEDA PHARMACEUTICAL COMPANY LIMITED, priority 2017, dated 2022).
# Target: T1, GPR6 receptor expressed in CHO-K1 cells (Homo sapiens, UniProt P46095)
# T1 construct: expressed in transfected cells
# Assay: In vitro inhibition of cAMP (EC50), cell-based HTRF cAMP assay
# Details: inhibition of constitutive cAMP activity of GPR6 in CHO-K1 cells
# In short: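 Cellular cAMP measured by Lance Ultra HTRF (Eu-cAMP tracer, ULight anti-cAMP), with EC50 fitted by four-parameter logistic. Test compounds sat on cells 45 min, 37 °C, in pH 7.4 Ringer's with 300 μM IBMX and 0.5% BSA; GPR6 in CHO-K1 induced beforehand by doxycycline, 2 μg/mL, 20 h.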
# T1 sequence (P46095 whole entry): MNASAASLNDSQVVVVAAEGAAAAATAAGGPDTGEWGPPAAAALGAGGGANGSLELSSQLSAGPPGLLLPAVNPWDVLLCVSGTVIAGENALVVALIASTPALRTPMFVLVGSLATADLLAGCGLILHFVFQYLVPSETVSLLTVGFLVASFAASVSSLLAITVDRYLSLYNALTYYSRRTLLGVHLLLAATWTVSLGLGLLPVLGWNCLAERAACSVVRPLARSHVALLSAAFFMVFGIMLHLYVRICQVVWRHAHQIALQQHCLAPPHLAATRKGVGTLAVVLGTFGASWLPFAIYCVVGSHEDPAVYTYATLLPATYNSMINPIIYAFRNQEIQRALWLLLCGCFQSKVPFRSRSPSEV
row,SMILES,"pEC50, in vitro inhibition of cAMP"
1,"COc1cc(N(C)C)ccc1C(=O)Nc1cc(C#N)ccc1N1CCC(Oc2ccc(F)cc2F)CC1 [Example 188, N-(5-cyano-2-(4-(2,4-difluorophenoxy)piperidin-1-yl)phenyl)-4-(dimethylamino)-2-methoxybenzamide]",6.4
2,"COc1c(F)ccc(F)c1C(=O)Nc1cc(C#N)ccc1N1CCC(Oc2ccc(F)cc2F)CC1 [Example 189, N-(5-cyano-2-(4-(2,4-difluorophenoxy)piperidin-1-yl)phenyl)-3,6-difluoro-2-methoxybenzamide]",5.8
3,"COc1cc(Cl)c(Cl)cc1C(=O)Nc1cc(C#N)ccc1N1CCC(Oc2ccc(F)cc2F)CC1 [Example 190, 4,5-dichloro-N-(5-cyano-2-(4-(2,4-difluorophenoxy)piperidin-1-yl)phenyl)-2-methoxybenzamide]",6.5
4,"COc1nc(Cl)ccc1C(=O)Nc1cc(C#N)ccc1N1CCC(Oc2ccc(F)cc2F)CC1 [Example 191, 6-chloro-N-(5-cyano-2-(4-(2,4-difluorophenoxy)piperidin-1-yl)phenyl)-2-methoxynicotinamide]",6.8
5,"COc1ccc(F)c(F)c1C(=O)Nc1cc(C#N)ccc1N1CCC(Oc2ccc(F)cc2F)CC1 [Example 192, N-(5-cyano-2-(4-(2,4-difluorophenoxy)piperidin-1-yl)phenyl)-2,3-difluoro-6-methoxybenzamide]",6.3
6,"COc1ncc(Cl)cc1C(=O)Nc1cc(C#N)ccc1N1CCC(Oc2ccc(F)cc2F)CC1 [Example 193, 5-chloro-N-(5-cyano-2-(4-(2,4-difluorophenoxy)piperidin-1-yl)phenyl)-2-methoxynicotinamide]",5.9
7,"COc1cc(C(F)(F)F)ccc1C(=O)Nc1cc(C#N)ccc1N1CCC(Oc2ccc(F)cc2F)CC1 [Example 194, N-(5-cyano-2-(4-(2,4-difluorophenoxy)piperidin-1-yl)phenyl)-2-methoxy-4-(trifluoromethyl)benzamide]",6.3
8,COc1c(C)cc(Cl)cc1C(=O)Nc1cc(C#N)ccc1N1CCC(Oc2ccc(F)cc2F)CC1 [Example 195],5.9
9,"COc1nc2c(cc1C(=O)Nc1cc(C#N)ccc1N1CCC(Oc3ccc(F)cc3F)CC1)CCC2 [Example 196, N-(5-cyano-2-(4-(2,4-difluorophenoxy)piperidin-1-yl)phenyl)-2-methoxy-6,7-dihydro-5H-cyclopenta[b]pyridine-3-carboxamide]",6.7
10,"Cc1cccn2c(=O)c(C(=O)Nc3cc(C#N)ccc3N3CCC(Oc4ccc(F)cc4F)CC3)cnc12 [Example 197, N-(5-cyano-2-(4-(2,4-difluorophenoxy)piperidin-1-yl)phenyl)-9-methyl-4-oxo-4H-pyrido[1,2-a]pyrimidine-3-carboxamide]",6.7
11,"Cc1sc2ncc(C(=O)Nc3cc(C#N)ccc3N3CCC(Oc4ccc(F)cc4F)CC3)c(=O)n2c1C [Example 198, N-(5-cyano-2-(4-(2,4-difluorophenoxy)piperidin-1-yl)phenyl)-2,3-dimethyl-5-oxo-5H-thiazolo[3,2-a]pyrimidine-6-carboxamide]",6.4
12,COCCCn1cccc(C(=O)Nc2cc(C#N)ccc2N2CCC(Oc3ccc(F)cc3F)CC2)c1=O [Example 199],5.9
13,"N#Cc1ccc(N2CCC(Oc3ccc(F)cc3F)CC2)c(NC(=O)c2cnc3sccn3c2=O)c1 [Example 200, N-(5-cyano-2-(4-(2,4-difluorophenoxy)piperidin-1-yl)phenyl)-5-oxo-5H-thiazolo[3,2-a]pyrimidine-6-carboxamide]",6.9
14,Cc1ccc2ncc(C(=O)Nc3cc(C#N)ccc3N3CCC(Oc4ccc(F)cc4F)CC3)c(=O)n2c1 [Example 201],6.8
15,CCn1c(C)cc(C)c(C(=O)Nc2cc(C#N)ccc2N2CCC(Oc3ccc(F)cc3F)CC2)c1=O [Example 202],6.3
16,"N#Cc1ccc(N2CCC(Oc3ccc(F)cc3F)CC2)c(NC(=O)c2cccn(Cc3ccccn3)c2=O)c1 [Example 203, N-(5-cyano-2-(4-(2,4-difluorophenoxy)piperidin-1-yl)phenyl)-2-oxo-1-(pyridin-2-ylmethyl)-1,2-dihydropyridine-3-carboxamide]",5.6
17,"CN(C)C(=O)Cn1cccc(C(=O)Nc2cc(C#N)ccc2N2CCC(Oc3ccc(F)cc3F)CC2)c1=O [Example 204, N-(5-cyano-2-(4-(2,4-difluorophenoxy)piperidin-1-yl)phenyl)-1-(2-(dimethylamino)-2-oxoethyl)-2-oxo-1,2-dihydropyridine-3-carboxamide]",4.9
18,"COc1ccc(OC)c(C(=O)Nc2cc(C#N)ccc2N2CCC(Oc3ccc(F)cc3F)CC2)c1 [Example 205, N-(5-cyano-2-(4-(2,4-difluorophenoxy)piperidin-1-yl)phenyl)-2,5-dimethoxybenzamide]",6.0

row,SMILES,"pEC50, in vitro inhibition of cAMP"
1,"COc1c(Cl)ccc(Cl)c1C(=O)Nc1cc(C#N)ccc1N1CCC(Oc2ccc(F)cc2F)CC1 [Example 206, 3,6-dichloro-N-(5-cyano-2-(4-(2,4-difluorophenoxy)piperidin-1-yl)phenyl)-2-methoxybenzamide]",5.1
2,"COc1c(F)cc(F)cc1C(=O)Nc1cc(C#N)ccc1N1CCC(Oc2ccc(F)cc2F)CC1 [Example 207, N-(5-cyano-2-(4-(2,4-difluorophenoxy)piperidin-1-yl)phenyl)-3,5-difluoro-2-methoxybenzamide]",6.8
3,"COc1ccc(C(F)(F)F)cc1C(=O)Nc1cc(C#N)ccc1N1CCC(Oc2ccc(F)cc2F)CC1 [Example 208, N-(5-cyano-2-(4-(2,4-difluorophenoxy)piperidin-1-yl)phenyl)-2-methoxy-5-(trifluoromethyl)benzamide]",6.9
4,"COc1ccc(C(C)(C)C)cc1C(=O)Nc1cc(C#N)ccc1N1CCC(Oc2ccc(F)cc2F)CC1 [Example 209, 5-(tert-butyl)-N-(5-cyano-2-(4-(2,4-difluorophenoxy)piperidin-1-yl)phenyl)-2-methoxybenzamide]",6.1
5,"COc1ccc(F)cc1C(=O)Nc1cc(C#N)ccc1N1CCC(Oc2ccc(F)cc2F)CC1 [Example 210, N-(5-cyano-2-(4-(2,4-difluorophenoxy)piperidin-1-yl)phenyl)-5-fluoro-2-methoxybenzamide]",7.3
6,"COc1ccc(Cl)cc1C(=O)Nc1cc(C#N)ccc1N1CCC(Oc2ccc(F)cc2F)CC1 [Example 211, 5-chloro-N-(5-cyano-2-(4-(2,4-difluorophenoxy)piperidin-1-yl)phenyl)-2-methoxybenzamide]",6.7
7,"COc1ccc(Cl)c(OC)c1C(=O)Nc1cc(C#N)ccc1N1CCC(Oc2ccc(F)cc2F)CC1 [Example 212, 3-chloro-N-(5-cyano-2-(4-(2,4-difluorophenoxy)piperidin-1-yl)phenyl)-2,6-dimethoxybenzamide]",<4.5
8,COc1nc(C(F)(F)F)ccc1C(=O)Nc1cc(C#N)ccc1N1CCC(Oc2ccc(F)cc2F)CC1 [Example 213],6.8
9,"COc1c(C)ccc(C)c1C(=O)Nc1cc(C#N)ccc1N1CCC(Oc2ccc(F)cc2F)CC1 [Example 214, N-(5-cyano-2-(4-(2,4-difluorophenoxy)piperidin-1-yl)phenyl)-2-methoxy-3,6-dimethylbenzamide]",5.5
10,"COc1ccc(N2CCOCC2)cc1C(=O)Nc1cc(C#N)ccc1N1CCC(Oc2ccc(F)cc2F)CC1 [Example 215, N-(5-cyano-2-(4-(2,4-difluorophenoxy)piperidin-1-yl)phenyl)-2-methoxy-5-morpholinobenzamide]",5.5
11,"COc1cc(C(C)(C)C)ccc1C(=O)Nc1cc(C#N)ccc1N1CCC(Oc2ccc(F)cc2F)CC1 [Example 216, 4-(tert-butyl)-N-(5-cyano-2-(4-(2,4-difluorophenoxy)piperidin-1-yl)phenyl)-2-methoxybenzamide]",6.4
12,"Cc1cn2c(=O)c(C(=O)Nc3cc(C#N)ccc3N3CCC(Oc4ccc(F)cc4F)CC3)cnc2s1 [Example 217, N-(5-cyano-2-(4-(2,4-difluorophenoxy)piperidin-1-yl)phenyl)-2-methyl-5-oxo-5H-thiazolo[3,2-a]pyrimidine-6-carboxamide]",6.7
13,"Cc1csc2ncc(C(=O)Nc3cc(C#N)ccc3N3CCC(Oc4ccc(F)cc4F)CC3)c(=O)n12 [Example 218, N-(5-cyano-2-(4-(2,4-difluorophenoxy)piperidin-1-yl)phenyl)-3-methyl-5-oxo-5H-thiazolo[3,2-a]pyrimidine-6-carboxamide]",6.8
14,"COc1cn(-c2ccccc2)nc1C(=O)Nc1cc(C#N)ccc1N1CCC(Oc2ccc(F)cc2F)CC1 [Example 219, N-(5-cyano-2-(4-(2,4-difluorophenoxy)piperidin-1-yl)phenyl)-4-methoxy-1-phenyl-1H-pyrazole-3-carboxamide]",6.3
15,"COc1c(C(=O)Nc2cc(C#N)ccc2N2CCC(Oc3ccc(F)cc3F)CC2)nnn1Cc1ccccc1 [Example 220, 1-benzyl-N-(5-cyano-2-(4-(2,4-difluorophenoxy)piperidin-1-yl)phenyl)-5-methoxy-1H-1,2,3-triazole-4-carboxamide]",5.8
16,"COc1c(C(=O)Nc2cc(C#N)ccc2N2CCC(Oc3ccc(F)cc3F)CC2)nnn1Cc1ccccc1Cl [Example 221, 1-(2-chlorobenzyl)-N-(5-cyano-2-(4-(2,4-difluorophenoxy)piperidin-1-yl)phenyl)-5-methoxy-1H-1,2,3-triazole-4-carboxamide]",<4.5
17,"COc1c(Cl)cccc1C(=O)Nc1cc(C#N)ccc1N1CCC(Oc2ccc(F)cc2F)CC1 [Example 222, 3-chloro-N-(5-cyano-2-(4-(2,4-difluorophenoxy)piperidin-1-yl)phenyl)-2-methoxybenzamide]",6.7
